Each structure is given as a SMILES string. pIC50: −log10 of the molar value. Read-outs that look alike come from different tables or passages of the source.

The values below come from patent publication US20090318446A1, “4-(1H-Indol-3-yl)-Pyrimidin-2-Ylamine Derivatives and Their Use in Therapy” (Cyclacel Limited, priority 2005, published 2009).

Type in all cases: biochemical
The target in one test is T1, aurora-A (Homo sapiens, UniProt O14965).
T1 construct: purchased Upstate, Dundee, UK
T1 sequence (O14965 1-403): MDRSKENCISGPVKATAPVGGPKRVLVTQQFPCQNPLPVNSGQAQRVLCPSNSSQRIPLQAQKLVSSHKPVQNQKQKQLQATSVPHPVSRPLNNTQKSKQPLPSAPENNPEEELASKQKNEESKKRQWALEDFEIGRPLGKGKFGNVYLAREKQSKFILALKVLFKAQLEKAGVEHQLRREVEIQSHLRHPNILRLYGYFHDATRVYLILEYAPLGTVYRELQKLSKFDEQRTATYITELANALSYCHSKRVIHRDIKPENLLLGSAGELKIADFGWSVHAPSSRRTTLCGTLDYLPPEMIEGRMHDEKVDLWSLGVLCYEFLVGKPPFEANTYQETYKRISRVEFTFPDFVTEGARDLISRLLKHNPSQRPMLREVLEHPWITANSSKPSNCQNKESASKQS
Nature of the test: Aurora-A (human) kinase assay. How it is done: This was achieved by measurement of incorporation of radioactive phosphate from ATP into Kemptide substrate (LRRASLG), upon phosphorylation by commercially obtained aurora-A (human, Upstate, Dundee, UK). Assays were performed using 96-well plates and appropriate assay buffers (20 mM Tris, 25 mM β-glycerophosphate, 5 mM EGTA, 1 mM DTT, 1 mM sodium vanadate, pH 7.5), into which were added 2-5 ng of active enzyme with 500 μM substrate (Kemptide). The reactions were initiated by addition of MgATP mix (15 mM MgCl2+100 μM ATP with 15-25 kBq per well of [γ-^32P]-ATP) and mixtures incubated for 30 min at 30° C. Reactions were stopped by addition of an equal volume of 75 mM aq orthophosphoric acid, followed by filtration through p81 filterplates (Whatman Polyfiltronics, Kent, UK). After washing 4 times with 75 mM aq orthophosphoric acid, plates were dried, scintillant added and incorporated radioactivity measured in a scintillation counter (TopCount, Packard Instruments, Pangbourne, Berks, UK). Compounds for kinase assay were made up as 10 mM stocks in DMSO and diluted into 10% DMSO in assay buffer. Data was analysed using curve-fitting software (XLfit version 4.0.2, IDBS, Guildford, Surrey, UK) to determine IC50 values (concentration of test compound which inhibits kinase activity by 50%).

The target in a further test is CDK2/cyclin E (Homo sapiens, UniProt P24941). Kind of test: Kinase assay CDK2/cyclin E. How it is done:
The compounds from the examples above were investigated for their ability to inhibit the enzymatic activity of various protein kinases. This was achieved by measurement of incorporation of radioactive phosphate from ATP into appropriate polypeptide substrates. Recombinant protein kinases and kinase complexes were produced or obtained commercially. Assays were performed using 96-well plates and appropriate assay buffers (typically 25 mM β-glycerophosphate, 20 mM MOPS, 5 mM EGTA, 1 mM DTT, 1 mM […], pH 7.4), into which were added 2-4 μg of active enzyme with appropriate substrates. The reactions were initiated by addition of Mg/ATP mix (15 mM MgCl2+100 μM ATP with 30-50 kBq per well of [γ-^32P]-ATP) and mixtures incubated as required at 30° C. Reactions were stopped on ice, followed by filtration through p81 filterplates or GF/C filterplates (Whatman Polyfiltronics, Kent, UK). After washing 3 times with 75 mM aq orthophosphoric acid, plates were dried, scintillant added and incorporated radioactivity measured in a scintillation counter (TopCount, Packard Instruments, Pangbourne, Berks, UK). Compounds for kinase assay were made up as 10 mM stocks in DMSO and diluted into 10% DMSO in assay buffer. Data was analysed using curve-fitting software (GraphPad Prism version 3.00 for Windows, GraphPad Software, San Diego Calif. USA) to determine IC50 values (concentration of test compound which inhibits kinase activity by 50%).

In another test the target is CDK9/cyclin T1 (Homo sapiens, UniProt P50750). Kind of test: CDK 9 assay. How it is done:
CTD peptide substrate (biotinyl-Ahx-(Tyr-Ser-Pro-Thr-Ser-Pro-Ser)4-NH2; 1-2 mg/mL) and recombinant human CDK7/cyclin H, CDK9/cyclin TI, or CDK9/cyclin K (0.5-2 μg) were incubated for 45 min at 30° C. in the presence of varying amounts of test compound in 20 mM MOPS pH 7.2, 25 mM β-glycerophosphate, 5 mM EGTA, 1 mM DTT, 1 mM sodium vanadate, 15 mM MgCl2, and 100 μM ATP (containing a trace amount of ^32PγATP) in a total volume of 25 μL in a 96-well microtiter plate. The reaction was stopped by placing the plate on ice for 2 min. Avidin (50 μg) was added to each well, and the plate was incubated at room temp for 30 min. The samples were transferred to a 96-well P81 filter plate, and washed (4×200 μL per well) with 75 mM phosphoric acid. Microscint 40 scintillation liquid (50 μL) was added to each well, and the amount of ^32P incorporation for each sample was measured using a Packard Topcount microplate scintillation counter.

[1] abbreviates: Table 3, values without asterisk, read-out: Kinase inhibition Aurora A.
The mark [2] stands for this setting: Table 3, read-out: Kinase inhibition CDK2E.
[3] abbreviates: Table 3, read-out: Kinase inhibition CDK9T1.
The mark [4] stands for this setting: Table 2, read-out: Kinase inhibition IC50 Aurora A.
Setting [5] is: Table 2, read-out: Kinase inhibition IC50 CDK2E.
Where [6] appears, read: Table 2, read-out: Kinase inhibition IC50 CDK9T1.

CDK9/cyclin T1, sequence (P50750 whole entry): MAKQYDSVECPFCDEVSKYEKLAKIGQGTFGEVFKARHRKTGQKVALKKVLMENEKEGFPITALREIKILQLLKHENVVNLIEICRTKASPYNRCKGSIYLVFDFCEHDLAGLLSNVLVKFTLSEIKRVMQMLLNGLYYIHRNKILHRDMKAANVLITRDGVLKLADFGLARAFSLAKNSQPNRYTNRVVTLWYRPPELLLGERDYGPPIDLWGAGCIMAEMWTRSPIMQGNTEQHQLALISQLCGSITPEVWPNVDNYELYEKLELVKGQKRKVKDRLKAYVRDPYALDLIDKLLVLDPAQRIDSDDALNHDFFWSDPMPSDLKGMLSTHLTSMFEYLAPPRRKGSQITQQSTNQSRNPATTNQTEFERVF
CDK9/cyclin T1, sequence (O60563 whole entry partner): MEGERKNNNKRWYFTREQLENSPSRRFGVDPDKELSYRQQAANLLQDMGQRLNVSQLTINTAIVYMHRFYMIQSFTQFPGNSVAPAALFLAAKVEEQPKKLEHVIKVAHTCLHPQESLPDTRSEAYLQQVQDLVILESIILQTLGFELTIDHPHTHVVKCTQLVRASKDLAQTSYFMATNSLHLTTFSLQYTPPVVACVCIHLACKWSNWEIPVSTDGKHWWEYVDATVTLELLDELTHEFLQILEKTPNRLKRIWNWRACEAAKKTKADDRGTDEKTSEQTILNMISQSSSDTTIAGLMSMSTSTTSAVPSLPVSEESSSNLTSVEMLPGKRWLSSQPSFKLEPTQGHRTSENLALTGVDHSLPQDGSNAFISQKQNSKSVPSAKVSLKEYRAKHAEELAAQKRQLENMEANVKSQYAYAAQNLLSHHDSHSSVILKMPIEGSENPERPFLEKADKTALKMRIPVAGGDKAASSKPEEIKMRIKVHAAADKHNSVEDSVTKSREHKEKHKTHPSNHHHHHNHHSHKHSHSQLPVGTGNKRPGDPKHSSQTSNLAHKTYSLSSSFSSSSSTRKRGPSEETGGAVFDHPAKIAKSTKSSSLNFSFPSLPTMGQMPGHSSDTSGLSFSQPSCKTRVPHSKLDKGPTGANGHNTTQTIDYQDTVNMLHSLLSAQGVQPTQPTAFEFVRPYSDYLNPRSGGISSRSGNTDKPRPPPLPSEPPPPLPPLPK

As for `c1ccc2c(-c3ccnc(Nc4ccc(N5CCNCC5)cc4)n3)c[nH]c2c1` [Compound 7, 4-(1H-indol-3-yl)-N-(4-piperazin-1-ylphenyl)pyrimidin-2-amine], the pIC50 is 6.66 at aurora-A (setting [1]), 5.71 at CDK2/cyclin E (setting [2]) and 6.28 at CDK9/cyclin T1 (setting [3]).

`COc1ccc(Nc2nccc(-c3c[nH]c4ccccc34)n2)cn1` [Compound 4, [4-(1H-Indol-3-yl)-pyrimidin-2-yl]-(6-methoxy-pyridin-3-yl)-amine]: the pIC50 at aurora-A (setting [4]) was 6.62; on CDK2/cyclin E (setting [5]), 5.89; on CDK2/cyclin E (setting [2]) it was 5.90; at CDK9/cyclin T1 (setting [6]) it was 5.55; on CDK9/cyclin T1 (setting [3]), 5.55.

Consider `Fc1ccc(Nc2nccc(-c3c[nH]c4ccccc34)n2)cc1` [Compound 3, (4-Fluoro-phenyl)-[4-(1H-indol-3-yl)-pyrimidin-2-yl]-amine], for which the pIC50 at aurora-A (setting [4]) was 5.96; at CDK2/cyclin E (setting [5]), 5.92; at CDK2/cyclin E (setting [2]) it was 5.93; at CDK9/cyclin T1 (setting [6]) it was < 4.00.

Consider `CC(=O)N1CCN(c2ccc(Nc3nccc(-c4c[nH]c5c(C)cccc45)n3)cc2)CC1` [Compound 23], for which the pIC50 at aurora-A (setting [1]) was 7.04; on CDK2/cyclin E (setting [2]), 5.61; on CDK9/cyclin T1 (setting [3]), 5.81.

In the case of `O=[N+]([O-])c1cccc(Nc2nccc(-c3c[nH]c4ccccc34)n2)c1` [Compound 2, [4-(1H-Indol-3-yl)-pyrimidin-2-yl]-(3-nitro-phenyl)-amine], the pIC50 on aurora-A (setting [4]) is 6.57; at CDK2/cyclin E (setting [5]), 5.54; on CDK2/cyclin E (setting [2]) it was 5.53; on CDK9/cyclin T1 (setting [6]), 5.21; on CDK9/cyclin T1 (setting [3]) it was 5.22.

Consider `CC(=O)N1CCN(c2ccc(Nc3nccc(-c4c[nH]c5ccccc45)n3)cc2)CC1` [Compound 6, 4-(1H-indol-3-yl)-N-(4-acetylpiperazin-1-ylphenyl)pyrimidin-2-amine], for which the pIC50 was 6.89 at aurora-A (setting [1]), 5.35 at CDK2/cyclin E (setting [2]) and 5.68 on CDK9/cyclin T1 (setting [3]).

In the case of `CC1CN(c2ccc(Nc3nccc(-c4c[nH]c5ccccc45)n3)cc2)CC(C)O1` (stereo not drawn) [Compound 9], the pIC50 at aurora-A (setting [1]) is 6.56; on CDK2/cyclin E (setting [2]), 5.31; on CDK9/cyclin T1 (setting [3]), 5.52.

Turning to `c1ccc2c(-c3ccnc(Nc4ccc(N5CCOCC5)cc4)n3)c[nH]c2c1` [Compound 5, [4-(1H-Indol-3-yl)-pyrimidin-2-yl]-(4-morpholin-4-yl-phenyl)-amine], the pIC50 was 7.24 at aurora-A (setting [4]), 6.09 at aurora-A (setting [1]), < 5.00 on CDK2/cyclin E (setting [5]) and < 5.00 at CDK9/cyclin T1 (setting [6]).

`CN(C)c1ccc(Nc2nccc(-c3c[nH]c4ccccc34)n2)cc1` [Compound 10, N′-[4-(1H-indol-3-yl)pyrimidin-2-yl]-N,N-dimethylbenzene-1,4-diamine]: the pIC50 is 6.55 at aurora-A (setting [1]), 5.63 at CDK2/cyclin E (setting [2]) and 5.80 on CDK9/cyclin T1 (setting [3]).

`COc1cc(Nc2nccc(-c3c[nH]c4ccccc34)n2)cc(OC)c1OC` [Compound 12, 4-(1H-indol-3-yl)-N-(3,4,5-trimethoxyphenyl)pyrimidin-2-amine]: the pIC50 at aurora-A (setting [1]) is 7.27; on CDK2/cyclin E (setting [2]) it was 5.74; at CDK9/cyclin T1 (setting [3]), 5.90.

For `COc1cc(Nc2nccc(-c3c[nH]c4ccccc34)n2)ccc1N1CCOCC1` [Compound 13, 4-(1H-indol-3-yl)-N-(3-methoxyl-4-morpholin-4-ylphenyl)pyrimidin-2-amine], the results for the pIC50 on aurora-A (setting [1]), at CDK2/cyclin E (setting [2]) and on CDK9/cyclin T1 (setting [3]) were 6.95, 5.12 and 5.37, respectively.

Regarding `CC(=O)N1CCN(c2ccc(Nc3nccc(-c4c(C)[nH]c5ccccc45)n3)cc2)CC1` [Compound 22], the pIC50 on aurora-A (setting [1]) was 7.42; on CDK2/cyclin E (setting [2]), 5.29; on CDK9/cyclin T1 (setting [3]), 5.35.
